Test results from publication PMC9821843, “Powerful Potential of Polyfluoroalkyl-Containing 4-Arylhydrazinylidenepyrazol-3-ones for Pharmaceuticals” (Molecules, 2022).
≈ marks a conversion by molar mass, not a printed value. Where two headings read alike, the source gives them in different places.

Key:
[1] = target: T1, human erythrocyte acetylcholinesterase (AChE, EC 3.1.1.7) (Homo sapiens, UniProt P22303); assay: Inhibition of human erythrocyte acetylcholinesterase (Ellman assay); assay type: biochemical; details: read-out: Inhibition % at 20 µM, Human AChE
T1 construct: human erythrocyte acetylcholinesterase (AChE, EC 3.1.1.7); purchased Sigma-Aldrich (Saint Louis, MO, USA); host or cells: human erythrocytes
T1 sequence (P22303 32-617 isoform P22303-2 limits assumed): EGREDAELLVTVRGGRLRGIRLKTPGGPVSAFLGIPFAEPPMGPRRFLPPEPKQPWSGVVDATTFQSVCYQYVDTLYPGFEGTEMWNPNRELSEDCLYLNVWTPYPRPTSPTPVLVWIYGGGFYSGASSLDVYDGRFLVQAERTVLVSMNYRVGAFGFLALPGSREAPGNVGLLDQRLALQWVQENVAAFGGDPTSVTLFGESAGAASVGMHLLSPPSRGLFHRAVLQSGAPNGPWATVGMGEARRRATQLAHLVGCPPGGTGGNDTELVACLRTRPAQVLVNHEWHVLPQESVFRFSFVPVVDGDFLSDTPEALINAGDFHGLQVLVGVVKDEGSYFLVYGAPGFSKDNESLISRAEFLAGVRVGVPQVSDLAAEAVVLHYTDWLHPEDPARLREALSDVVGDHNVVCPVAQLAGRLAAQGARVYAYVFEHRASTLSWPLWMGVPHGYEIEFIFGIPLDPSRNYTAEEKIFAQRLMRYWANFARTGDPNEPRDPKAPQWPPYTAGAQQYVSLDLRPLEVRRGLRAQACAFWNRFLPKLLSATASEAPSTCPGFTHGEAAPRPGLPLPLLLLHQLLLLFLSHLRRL
Text: (§1) The following enzymes were purchased from Sigma-Aldrich (Saint Louis, MO, USA): porcine liver carboxylesterase (CES, EC 3.1.1.1), human erythrocyte acetylcholinesterase (AChE, EC 3.1.1.7) and equine serum butyrylcholinesterase (BChE, EC 3.1.1.8). Substrates for CES, AChE and BChE were 4-nitrophenyl acetate (4-NPA), acetylthiocholine iodide (ATCh) and butyrylthiocholine iodide (BTCh), respectively, and the colorimetric reagent for the AChE and BChE assays was 5,5’-dithio-bis-(2-nitrobenzoic acid) (DTNB) (Sigma-Aldrich). All the kinetic experiments were performed under standard conditions, according to the protocol of IPAC RAS for a reversible inhibitors study.
Reagent blanks consisted of reaction mixtures without enzyme to assess non-enzymatic hydrolysis of substrates.
Test compounds were dissolved in DMSO. Reaction mixtures contained a final DMSO concentration of 2% (v/v). […] Measurements were performed in a Bio-Rad Benchmark Plus microplate reader. Each experiment was performed in triplicate. Plots, linear regressions and values of IC50, were determined using Origin 6.1 for Windows, OriginLab (Northampton, MA, USA).

[2] = target: T2, equine serum butyrylcholinesterase (BChE, EC 3.1.1.8) (Equus caballus, UniProt P81908); assay: Inhibition of equine serum butyrylcholinesterase (Ellman assay); assay type: biochemical; details: read-out: Inhibition % at 20 µM, Equine BChE
T2 construct: equine serum butyrylcholinesterase (BChE, EC 3.1.1.8); purchased Sigma-Aldrich (Saint Louis, MO, USA); host or cells: equine serum
T2 sequence (P81908 whole entry): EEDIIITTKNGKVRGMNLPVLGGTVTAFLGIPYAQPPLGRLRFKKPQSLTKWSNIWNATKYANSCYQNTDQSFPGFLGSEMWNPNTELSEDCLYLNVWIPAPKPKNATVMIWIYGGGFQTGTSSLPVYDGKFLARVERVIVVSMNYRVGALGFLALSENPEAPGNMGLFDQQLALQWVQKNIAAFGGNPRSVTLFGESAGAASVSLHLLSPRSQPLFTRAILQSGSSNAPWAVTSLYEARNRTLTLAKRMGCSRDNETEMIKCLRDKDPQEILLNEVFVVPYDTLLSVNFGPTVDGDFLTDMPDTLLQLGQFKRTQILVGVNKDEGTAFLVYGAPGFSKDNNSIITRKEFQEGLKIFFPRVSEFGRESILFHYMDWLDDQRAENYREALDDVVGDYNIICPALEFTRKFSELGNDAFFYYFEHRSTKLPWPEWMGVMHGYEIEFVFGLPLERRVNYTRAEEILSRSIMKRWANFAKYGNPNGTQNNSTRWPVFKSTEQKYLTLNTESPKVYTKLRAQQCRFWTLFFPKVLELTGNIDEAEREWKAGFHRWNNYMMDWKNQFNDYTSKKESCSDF
Text: as §1
Final concentrations of reactants were 0.33 mM DTNB, 0.02 unit/mL of AChE or BChE and 1 mM of substrate (ATCh or BTCh, respectively). Reagent blanks consisted of reaction mixtures without enzyme to assess non-enzymatic hydrolysis of substrates.
(§2) Test compounds were dissolved in DMSO. Reaction mixtures contained a final DMSO concentration of 2% (v/v). […] Substrate was then added and residual enzyme activity relative to an inhibitor-free control was measured using a Bio-Rad Benchmark Plus microplate reader (Marnes-la-Coquette, France).
(§3) Measurements were performed in a Bio-Rad Benchmark Plus microplate reader. Each experiment was performed in triplicate. Plots, linear regressions and values of IC50, were determined using Origin 6.1 for Windows, OriginLab (Northampton, MA, USA).

[3] = tested on: Epidermophyton floccosum RCPF F 1659/17; assay: Antifungal susceptibility testing, E. floccosum; details: Epidermophyton floccosum, RCPFF1659/17, read-out: MIC for fungi strains inhibition, E. floccosum
Text: (§4) The solvent was DMSO. […] In each test, a growth control and a sterility control were used.

Sprague-Dawley (SD) rats = assay: Hot plate test (analgesic activity); assay type: in vivo; details: ip; for change in vivo at 15 mg/kg: Rattus norvegicus
Experimental: The hot plate test was conducted according to established guidelines on Sprague-Dawley (SD) rats (3 male and 3 female rodents per group). The compounds were intraperitoneally administered in the form of suspensions in 1% starch mucilage. Negative control group animals received vehicle only (1% starch mucilage). Diclofenac sodium (Hemofarm, Vršac, Serbia, 10 mg/kg in 1% starch mucilage solution) or metamizole sodium (PAO Biosynthesis, Sun Pharma, Penza, Russia, 15 mg/kg in 1% starch mucilage solution) were used as reference drugs. One and two hours after the injection, rats were placed on an electrically heated to 50 °C plate (Hot plate 60,200 series, TSE-systems, Bad Homburg, Germany) in a Plexiglas cylindrical restrainer (19 cm diameter × 30 cm). The nociceptive response time was measured by observing the appearance of rats’ movements (e.g., jumping, hind paw licking or shaking). Maximal cutoff time was set as 30 s regardless of the response in order to preclude skin damage.
Differences between the values of the latency period for the treated (experimental) and control groups of animals were considered significant at p ≤ 0.05.

[4] = tested on: Microsporum canis RCPF F 1643/1585; assay: Antifungal susceptibility testing, M. canis; details: Microsporum canis, RCPFF1643/1585, read-out: MIC for fungi strains inhibition, M. canis
Text: as §4

[5] = Acute toxicity evaluation in mice (ip); details: CD-1, mouse, in vivo, 300 mg/kg
Experimental: The toxicity evaluation was performed on CD-1 mice. […] The tested compounds in 1% starch mucilage were injected intraperitoneally into three mice. Then, animals were observed during 14 days, the number of deaths was counted and % of viability calculated.

[6] = tested on: Candida albicans RCPF Y 401/NCTC 885/653; assay: Antifungal susceptibility testing, C. albicans; details: NCTC885, read-out: MIC for fungi strains inhibition, C. albicans
Text: as §4

[7] = target: porcine liver carboxylesterase (CES, EC 3.1.1.1) (Sus scrofa, UniProt Q29550); assay: Inhibition of porcine liver carboxylesterase (4-NPA colorimetric assay); assay type: biochemical; details: mean ± SEM, n = 3; for inhibition at 20 µM: n.a. = inactive at 20 µM
Chain of porcine liver carboxylesterase (CES, EC 3.1.1.1) (Q29550 19-566): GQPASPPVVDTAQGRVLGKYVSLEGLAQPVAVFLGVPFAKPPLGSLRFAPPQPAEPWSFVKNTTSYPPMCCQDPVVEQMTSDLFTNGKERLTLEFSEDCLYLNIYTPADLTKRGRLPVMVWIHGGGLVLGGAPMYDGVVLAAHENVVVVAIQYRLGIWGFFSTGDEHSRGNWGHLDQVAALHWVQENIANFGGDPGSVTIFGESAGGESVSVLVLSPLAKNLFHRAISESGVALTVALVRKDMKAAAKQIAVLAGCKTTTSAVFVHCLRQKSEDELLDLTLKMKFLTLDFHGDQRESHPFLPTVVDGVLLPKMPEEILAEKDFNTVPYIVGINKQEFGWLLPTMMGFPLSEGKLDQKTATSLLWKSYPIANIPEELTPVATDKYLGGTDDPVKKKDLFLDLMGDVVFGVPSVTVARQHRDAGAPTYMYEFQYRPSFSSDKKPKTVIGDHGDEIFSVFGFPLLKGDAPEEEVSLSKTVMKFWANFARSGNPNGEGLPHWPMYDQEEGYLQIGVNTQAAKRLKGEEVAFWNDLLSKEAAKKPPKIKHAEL
Text: as §1
The CES (porcine liver) activity was assessed colorimetrically in 0.1 M K/Na phosphate buffer pH 8.0, 25 °C, by measuring the absorbance of 4-nitrophenol at 405 nm. Final enzyme and substrate (4-NPA) concentrations were 0.02 unit/mL and 1 mM, respectively. Reagent blanks included all constituents except enzyme.
as §2, with “(v/v). Enzyme inhibition was first assessed at a single concentration of 20 µM for each compound after a 5 min incubation at 25 °C in three separate experiments.” for “(v/v).”
as §3, with “USA). Results were calculated using GraphPad Prism version 6.05 for Windows, GraphPad Software (La Jolla, CA, USA) and presented as mean ± SEM.” for “USA).”

[8] = tested on: Trichophyton rubrum RCPF F 1408; assay: Antifungal susceptibility testing, T. rubrum; details: Trichophyton rubrum, RCPFF1408, read-out: MIC for fungi strains inhibition, T. rubrum
Text: as §4

[9] = tested on: Neisseria gonorrhoeae ATCC 49226/NCTC 12700; assay: Antibacterial activity against Neisseria gonorrhoeae; assay type: cell-based; details: read-out: MIC against Neisseria gonorrhoeae
Experimental: Antibacterial activity testing was done on the growth medium Difco GC medium base (Becton Dickinson, Franklin Lakes, NJ, USA) supplemented with 1% IsoVitaleX. Dilutions of chemical compounds were carried out in the range of 250–0.12 μg/mL in 24 well sterile plates (Sarstedt, Germany). Daily cultures of control bacterial strains were identified on a VITEK MS analyzer (BioMérieux, Marcy-l’Étoile, France) by MALDI-TOF mass spectrometry. The inoculation dose of N. gonorrhoeae inoculum was 10^5 CFU/mL.

[10] = Oxygen radical absorbance capacity (ORAC-FL) assay; details: n.a. = inactive; i.t.s. = interferes with test system
Text: We evaluated the primary antioxidant activity of synthesized 4-AHPs 5–9 in comparison with their non-fluorinated analogues 9a,b using three standard tests: ABTS, FRAP (ferric reducing antioxidant power) and ORAC (oxygen radical absorbance capacity) assays. The ABTS assay evaluates the binding of a model ABTS radical cation (ABTS^•+), which is realized by the mechanism of single electron transfer (SET) and/or hydrogen atom transfer (HAT). The FRAP assay measures the ability of compounds to reduce the ferric 2,4,6-tripyridyl-s-triazine complex [Fe(TPTZ)2]^3+ to [Fe(TPTZ)2]^2+, which occurs exclusively by the SET mechanism. The ORAC-FL assay measures the oxidative degradation of the fluorescent molecule (FL – fluorescein) after being mixed with a free peroxyl radical generator such as 2,2′-azobis-(2-methylpropionamidine) dihydrochloride (AAPH) in the presence of antioxidant (tested compound). The ORAC-FL test describes the antioxidants’ ability to yield the hydrogen atom and, consequently, it is a HAT-based assay. Trolox was used in all tests as a reference antioxidant: the antioxidant activity of the test compounds was referred to the activity of Trolox. The well-known antioxidant Edaravone was also used for comparison.
The ORAC assay was performed according to the known method, with minor variations and described by us recently.

[11] = ABTS radical cation scavenging activity assay; details: mean ± SEM
Experimental: Radical scavenging activity of the compounds was evaluated by the ABTS radical cation (ABTS^•+) scavenging assay by the ability of the compounds to decolorize the ABTS^•+ solution [112] with some modifications. Trolox was used as a reference standard. Edaravone was used as the comparison compound. All tested compounds and standards were dissolved in DMSO. ABTS (2,2′-azinobis-(3-ethylbenzothiazoline-6-sulfonic acid)) was purchased from Tokyo Chemical Industry Co. Ltd. (Tokyo, Japan). Potassium persulfate (di-potassium peroxdisulfate), Trolox® (6-hydroxy-2,5,7,8-tetramethychroman-2-carboxylic acid), ascorbic acid, DMSO and HPLC-grade ethanol were obtained from Sigma-Aldrich Chemical Co. Aqueous solutions were prepared using deionized water.
The solution of ABTS^•+ was produced by mixing 7 mM ABTS aqueous solution with 2.45 mM potassium persulfate aqueous solution in equal quantities and allowing them to react for 12–16 h at room temperature in the dark. Radical scavenging capacity of the compounds was analyzed by mixing 10 μL of compound with 240 μL of ABTS^•+ working solution in ethanol (100 μM final concentration), and after 1 h of incubation at 30 °C the decrease in absorbance was measured spectrophotometrically at 734 nm using a Bio-Rad xMark microplate UV/VIS spectrophotometer (Bio-Rad, Hercules, CA, USA). The compounds were tested in the concentration range of 5 × 10^–7–4 × 10^–4 M. Ethanol blanks were run in each assay. Values were obtained from five replicates of each sample and three independent experiments.
Antioxidant activity was calculated as Trolox equivalent antioxidant capacity (TEAC values), consisting of the ratio between the slopes obtained from the linear correlation for concentrations of the tested compounds and Trolox with absorbance of ABTS radical. For the test compounds, which reduce ABTS^•+ absorbance by more than 60% at 100 µM, we also determined IC50 values as 50% reduction of the ABTS radical. The calculations were carried out using Origin 6.1 for Windows. Results were presented as mean ± SEM, calculated using GraphPad Prism version 6.05 for Windows, GraphPad Software.

[12] = hot plate test, rats, dose 15 mg/kg, 1 h, n.a. = inactive (p > 0.05), read-out: Latent Period Prolongation, % 1 h
[13] = hot plate test, rats, dose 15 mg/kg, 2 h, n.a. = inactive (p > 0.05), read-out: Latent Period Prolongation, % 2 h

In the case of `O=C1/C(=N\Nc2ccccc2Cl)C(C(F)(F)F)=NN1c1ccccc1` [5i, (4Z)-4-[2-(2-Chlorophenyl)hydrazinylidene]-2-phenyl-5-(trifluoromethyl)-2,4-dihydro-3H-pyrazol-3-one], the inhibition at 20 µM [1] is reported as 6.3 ± 1%, the inhibition at 20 µM [2] is reported as 6.4 ± 1.3% and the MIC [3] is reported as greater than 200 µg/mL. The change in vivo at 15 mg/kg (Sprague-Dawley (SD) rats; [12]) was 42%, the change in vivo at 15 mg/kg (Sprague-Dawley (SD) rats; [13]) was 61% and the MIC [4] was greater than 200 µg/mL. For the same molecule, the survival at 14 days [5] was 100%, the MIC [6] was greater than 200 µg/mL and the inhibition at 20 µM [7] was 23.2 ± 1.8%. For the same molecule, the MIC [8] was greater than 200 µg/mL, the MIC [9] was greater than 250 µg/mL and the “ORAC-FL (TE, antioxidant activity in Trolox equivalents)” value [10] was “i.t.s”.

Molecule `O=C1/C(=N\Nc2ccc(S(=O)(=O)O)cc2)C(C(F)(F)F)=NN1c1ccccc1` [5o, (4Z)-4-(2-[4-(Sulfo)phenyl]hydrazinylidene)-2-phenyl-5-(trifluoromethyl)-2,4-dihydro-3H-pyrazol-3-one] has an inhibition at 20 µM [2] of 7.4 ± 1.2%, a change in vivo at 15 mg/kg (Sprague-Dawley (SD) rats; [12]) of 109% and a change in vivo at 15 mg/kg (Sprague-Dawley (SD) rats; [13]) of 54%. The survival at 14 days [5] was 100%, the inhibition at 20 µM [7] was 5.2 ± 1% and the MIC [9] was 62.5 µg/mL (≈ 152 µM). The “ORAC-FL (TE, antioxidant activity in Trolox equivalents)” value [10] was “i.t.s”.

With `O=C1/C(=N\Nc2ccc(Cl)cc2Cl)C(C(F)(F)C(F)(F)F)=NN1c1ccccc1` [6f, (4Z)-4-[2-(2,4-Dichlorophenyl)hydrazinylidene]-5-(pentafluoroethyl)-2-phenyl-2,4-dihydro-3H-pyrazol-3-one] the inhibition at 20 µM [1] was 3.4 ± 0.7%, the inhibition at 20 µM [2] was 4.3 ± 0.8% and the MIC [3] was 200 µg/mL (≈ 443 µM). The “analgesic activity in the hot plate test” value (Sprague-Dawley (SD) rats; SD rats, dose 15 mg/kg, 1 and 2 h) was “inactive”, the MIC [4] was greater than 200 µg/mL and the survival at 14 days [5] was 100%. For the same molecule, the MIC [6] was greater than 200 µg/mL, the inhibition at 20 µM [7] was 6.6 ± 0.9% and the MIC [8] was greater than 200 µg/mL. For the same molecule, the MIC [9] was greater than 250 µg/mL.

With `Cc1ccc(N/N=C2\C(=O)N(c3ccccc3)N=C2C(F)(F)C(F)(F)C(F)(F)C(F)(F)F)cc1` [8b, (4Z)-5-(Nonafluorobutyl)-4-[2-(4-methylphenyl)hydrazinylidene]-2-phenyl-2,4-dihydro-3H-pyrazol-3-one] the inhibition at 20 µM [1] was 9 ± 1.4%, the change in vivo at 15 mg/kg (Sprague-Dawley (SD) rats; 1 h, read-out: Latent Period Prolongation, % 1 h) was 95.2% and the change in vivo at 15 mg/kg (Sprague-Dawley (SD) rats; 2 h, read-out: Latent Period Prolongation, % 2 h) was 125%. For the same molecule, the survival at 14 days [5] was 100%, the inhibition at 20 µM [7] was 12.1 ± 1.9% and the MIC [9] was greater than 250 µg/mL. For the same molecule, the IC50 [11] was greater than 400000 nM and the “ABTS•+-scavenging activity, TEAC (trolox equivalent antioxidant capacity)” value ([11]; n.a. = inactive) was 0.05 ± 0.03.

In the case of `O=[N+]([O-])c1ccc(OP(=O)(O)Oc2ccc([N+](=O)[O-])cc2)cc1` [BNPP, reference compound], the IC50 ([7]; read-out: Inhibitory Activity IC50 ± SEM, Porcine CES) is reported as 1800 ± 110 nM.
